Test results as given in US20250188162A1, “INHIBITOR OF INTERLEUKIN-1 RECEPTOR TYPE 1 FOR USE IN THE TREATMENT OF CANCER” (Buzzard Pharmaceuticals AB, priority 2022, published 2025).

Key:
[1] = 133 mg/h for 72 hours; cited from earlier work
IKKβ = test: immunoblots of mouse BMDM exposed to VCAN; assay type: cell-based; conditions: primary murine BMDM, recombinant human versican 1 nM
From the text: (§1) FIG. 4. Tumor-secreted versican drives macrophage IKKβ, metastasis, and is a cancer biomarker. (A-E) Kras-mutant and wild-type cancer cell RNA and supernatants were subjected to microarray and LC-MSMS analyses, respectively. Shown are experimental design (A), top-20 over-represented transcripts (B) and secretory proteins (C), and Vcan/VCAN mRNA/protein expression (D, E). n=2-3/group; P, probability, two-way ANOVA; Bold letters, false discovery rate (FDR) q<0.05 compared with Kras-wild-type cells, two-stage linear step-up procedure of Benjamini, Hochberg, and Yekutieli. (F, G) Representative bioluminescent images (F) and data summary (G) from pNGL RAW264.7 cells exposed to lipopolysaccharide (LPS; 1 μg/mL) or recombinant proteins (1-2 nM). n=5/group; P, probability, two-way ANOVA; ****, P<0.0001 compared with other groups, Bonferroni post-tests. (H) Immunoblots of mouse BMDM exposed to VCAN. n=5/group. (I-M) LLC cells stably expressing control (shC) and anti-Vcan (shVcan) shRNA were validated and injected intrapleurally into NGL mice. Shown are immunoblots (I), Vcan mRNA expression (J), and data summaries (K, L) and representative photographic and bioluminescent images (M) taken 14 days post-tumor cells. (I, J) n=5/group; (K-M) n=16/group; P, probability, unpaired Student's t-test. […]

NF-κB [2] = test: NF-κB ligand screen in pNGL-expressing RAW264.7 macrophages; assay type: cell-based, murine; conditions: recombinant VCAN 1 nM, compared with LPS 1 μg/mL
From the text: as §1, with “mice.” for “mice. Shown are immunoblots (I), Vcan mRNA expression (J), and data summaries (K, L) and representative photographic and bioluminescent images (M) taken 14 days post-tumor cells. (I, J) n=5/group; (K-M) n=16/group; P, probability, unpaired Student's t-test.”
Mice were imaged for NF-κB reporter bioluminescent signal daily starting at day 10 post-tumor cell injection until sacrifice. […] Data were analyzed using Living Image v.4.2 (Perkin-Elmer, Waltham, MA) as described previously (9, 10, 15, 15, 22, 29, 39). […]

NF-κB [3] = test: NF-κB reporter bioluminescence of NGL RAW264.7 macrophages pre-treated with Cu-CPT22 and exposed to VCAN; assay type: cell-based, murine; conditions: 1 nM recombinant VCAN, bioluminescence at 24 hours
RAW264.7 macrophages = test: MTT reduction of RAW264.7 macrophages treated with Cu-CPT22; assay type: cell-based, murine; conditions: MTT reduction at 72 hours post-LPS/VCAN
Kras-mutant cancer cells [4] = test: malignant pleural effusion model of κB.luc mice with pleural LLC cells treated with Cu-CPT22; assay type: in vivo; conditions: daily intraperitoneal 20 mg/kg, 14 days post-pleural LLC cells
Kras-mutant cancer cells [5] = test: intrapleural LLC κB.LUC reporter malignant pleural effusion model treated with Isunakinra; assay type: in vivo, mice; conditions: daily intraperitoneal 20 mg/Kg from day 5 post-intrapleural LLC cells
Procedure: (§2) FIG. 6. Pharmacologic abolition of non-oncogene addiction of Kras-mutant tumors to IL-1β. […] (A) FVB (n=10) and C57BL/6 (n=45) mice received subcutaneous injections of 5×10^6 FULA1 (FVB mice) or LLC, MC38, B16F10, or PANO2 (C57BL/6 mice) cells that carry G12C, G13R, Q61R, or wild-type (WT) Kras alleles. Mice were allowed 10-17 days for tumor take, and were treated with daily intraperitoneal phosphate buffered saline (PBS) or 20 mg/Kg (LLC cells) or 50 mg/Kg (all other cells) Isunakinra until control tumor volume reached 1 cm3 (PANO2 cells) or 2 cm3 (all other cell lines). Shown are therapy (Tx) start, mouse numbers (n), tumor volume as mean (circles) and SD (bars), two-way ANOVA probability (P) for treatment effects, and average Isunakinra effect at the last time-points (%). ** and ***: P<0.01 and P<0.001, respectively, Bonferroni post-tests. (B-D) C57BL/6 mice (n=48) received intrapleural 2×10^5 LLC cells stably expressing a κB.LUC reporter (NGL), were allowed five days for tumor take, and received daily intraperitoneal PBS or 20 mg/Kg Isunakinra. Mice were sacrificed when morbid (n=17/treatment) or at day 14 post-LLC cells (n=7/treatment), after 1 mg intravenous D-luciferin and bioluminescence imaging. […]

KrasMUT tumors = test: subcutaneous tumor growth in mice with established tumors treated with Isunakinra; assay type: in vivo; conditions: daily intraperitoneal 20 or 50 mg/Kg from 10-17 days post tumor cells; FULA1, LLC, MC38 (Kras-mutant) vs B16F10, PANO2 (WT)
Procedure: as §2

IL-1RA: IL-1 receptor antagonist protein, natural antagonist of IL-1α and IL-1β
clinical or laboratory values [1]: no change in clinical or laboratory values

VCAN: recombinant human active versican, TLR2 ligand glycoprotein
IKKβ induction (IKKβ): induced IKKβ in primary murine BMDM
macrophage NF-κB-driven transcription (NF-κB [2]): potently activates macrophage NF-κB-driven transcription to the same degree as the TLR4 ligand lipopolysaccharide (LPS)

CCCCCCOC(=O)c1cc(O)c(=O)c2c(O)c(O)c(OC)cc2c1 [Cu-CPT22, 3,4,6-Trihydroxy-2-methoxy-5-oxo-5H-benzocycloheptene-8-carboxylic acid hexyl ester]
concentration range inhibiting VCAN induced NF-κB activation (NF-κB [3]): low micromolar range
concentration range inhibiting cellular survival (RAW264.7 macrophages): low micromolar range
VCAN-induced myeloid NF-κB activation and MPE (Kras-mutant cancer cells [4]): blocks versican (VCAN)-induced myeloid NF-κB activation and MPE of Kras-mutant cancer cells in vivo
tumor growth in vivo (Kras-mutant cancer cells [4]): blocked tumor growth in vivo at clinically relevant concentrations

B1: Isunakinra: protein chimera of IL-1β and IL-1 receptor antagonists comprising P05 (SEQ ID NO: 5); binds IL1R1 (protein)
chain: APVRSLNCRIWDVNQKTFYLRNNQLVAGYLQGPNVNLEEKFSMSFVQGEESNDKIPVALGLKEKNLYLSCVLKDDKPTLQLESVDPKNYPKKKMEKRFVFNKIEINNKLEFESAQFPNWFLCTAMEADQPVSLTNMPDEGVMVTKFYMQFVSS
modifications: P05
NF-κB activation in KrasMUT cancer cells in vivo (chest bioluminescence) (Kras-mutant cancer cells [5]): limited nuclear factor (NF)-κB activation in KrasMUT cancer cells in vivo
malignant pleural effusions (MPE) (Kras-mutant cancer cells [5]): limits nuclear factor (NF)-κB activation and malignant pleural effusions (MPE) from Kras-mutant cancer cells
s.c. tumor growth (tumor volume) (KrasMUT tumors): specifically inhibited s.c. growth of KrasMUT tumors
